Assay results: ChEMBL document CHEMBL1127379, “Three-dimensional molecular shape analysis-quantitative structure-activity relationship of a series of cholecystokinin-A receptor antagonists” (J Med Chem, 1994)

Target: T1, Cholecystokinin receptor type A (Rattus norvegicus, UniProt P30551)
T1 sequence (P30551 whole entry): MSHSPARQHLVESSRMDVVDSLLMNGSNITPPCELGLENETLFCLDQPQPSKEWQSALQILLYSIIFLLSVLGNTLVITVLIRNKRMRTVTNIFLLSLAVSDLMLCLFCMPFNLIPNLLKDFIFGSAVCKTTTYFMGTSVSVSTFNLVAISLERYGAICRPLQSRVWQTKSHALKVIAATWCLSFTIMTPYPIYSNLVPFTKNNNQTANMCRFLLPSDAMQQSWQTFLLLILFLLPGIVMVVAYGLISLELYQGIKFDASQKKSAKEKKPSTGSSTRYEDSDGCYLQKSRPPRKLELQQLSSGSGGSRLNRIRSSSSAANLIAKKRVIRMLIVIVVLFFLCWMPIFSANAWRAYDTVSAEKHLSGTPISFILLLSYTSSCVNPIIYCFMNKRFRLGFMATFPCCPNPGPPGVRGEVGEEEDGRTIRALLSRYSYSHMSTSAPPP
Assay: Binding affinity against cholecystokinin type A receptor of rat pancreas

SMILES: O=C(CNc1ccccc1)NC1N=C(c2ccccc2F)c2ccccc2NC1=O (stereo not drawn)
- IC50: 89.1 nM

SMILES: O=C(NC1N=C(c2ccccc2)c2ccccc2NC1=O)c1cc2ccccc2[nH]1 (stereo not drawn)
- IC50: 4.57 nM

SMILES: O=C(NC1N=C(c2ccccc2F)c2ccccc2NC1=O)c1cc2cc(Cl)ccc2[nH]1 (stereo not drawn)
- IC50: 100 nM

SMILES: CN1C(=O)C(NC(=O)c2cccc(Br)c2)N=C(c2ccccc2F)c2ccccc21 (stereo not drawn)
- IC50: 3.47 nM

SMILES: CN1C(=O)[C@@H](NC(=O)c2ccc(Br)cc2)N=C(c2ccccc2)c2ccccc21
- IC50: 2.51 nM

SMILES: CN1C(=O)C(NC(=O)c2ccc(I)cc2)N=C(c2ccccc2F)c2ccccc21 (stereo not drawn)
- IC50: 0.794 nM

SMILES: CN1C(=O)[C@@H](NC(=O)c2ccc(Cl)cc2)N=C(c2ccccc2F)c2ccccc21
- IC50: 2.88 nM

SMILES: CC1C(C(=O)NC2N=C(c3ccccc3F)c3ccccc3NC2=O)=Cc2ccccc21 (stereo not drawn)
- IC50: 21.9 nM

SMILES: O=C(NC1N=C(c2ccccc2)c2ccccc2NC1=O)c1ccc(O)cc1 (stereo not drawn)
- IC50: 1780 nM

SMILES: CN1C(=O)C(NC(=O)c2ccccc2I)N=C(c2ccccc2F)c2ccccc21 (stereo not drawn)
- IC50: 794 nM

SMILES: CN1C(=O)C(NC(=O)c2ccc(Br)cc2)N=C(c2ccccc2F)c2ccccc21 (stereo not drawn)
- IC50: 0.794 nM

SMILES: CN1C(=O)C(NC(=O)c2ccc(C#N)cc2)N=C(c2ccccc2F)c2ccccc21 (stereo not drawn)
- IC50: 42.7 nM

SMILES: CN1C(=O)C(NC(=O)c2ccc(C(F)(F)F)cc2)N=C(c2ccccc2)c2ccccc21 (stereo not drawn)
- IC50: 1.29 nM
